Data published in US20240108740A1, “THERAPEUTIC COMPOSITIONS INCLUDING SPN10 AND USES THEREOF” (Stealth BioTherapeutics Inc., priority 2022, published 2024).
Residues, ends and D or L forms follow the SMILES beside them.

Legend:
N2A cells = assay: Example 26: mitochondrial membrane potential and ROS accumulation after t-BHP (TMRM, DCF); format: cell-based; conditions: 0.1 mM t-BHP, 6 hours
Method: N2A cells cultured in a glass dish will be treated with 0.1 mM t-BHP alone or in the presence of peptide conjugates (1 nM); aromatic-cationic peptides (an equivalent molar dose of aromatic-cationic peptide based on the concentration of the aromatic-cationic peptide administered in the peptide conjugate treatment group); SPN10(s) (an equivalent molar dose of SPN10 based on the concentration of SPN10 administered in the peptide conjugate treatment group) or SPN10(s) in combination with aromatic-cationic peptides (e.g., an equivalent molar dose of SPN10 based on the concentration of SPN10 administered in the peptide conjugate treatment group and an equivalent molar dose of aromatic-cationic peptide based on the concentration of aromatic-cationic peptide administered in the peptide conjugate treatment group) for 6 hours. Cells will then be loaded with 10 μM dichlorofluorescin (DCF) (ex/em=485/530) for 30 minutes at 37° C., 5% CO2. Cells will be washed 3 times with HBSS, stained with 20 nM of Mitotracker TMRM (ex/em=550/575 nm) for 15 minutes at 37° C., and examined by confocal laser scanning microscopy.

transplant patients = assay: Cyclosporine nephrotoxicity and organ health in transplant patients; format: in vivo, human; conditions: subjects receiving cyclosporine
From the text: To prevent organ or tissue rejection after transplant, patients often receive a regimen of the immunosuppressive drug cyclosporine. Cyclosporine levels are established and maintained in the subject at levels to effectively suppress the immune system. However, nephrotoxicity is a concern for these subjects, and the level of the drug in the subject's blood is monitored carefully. Cyclosporine doses are adjusted accordingly in order to not only prevent rejection, but also to deter these potentially damaging side effects. Typically, an adult transplant patient receives cyclosporine as follows: IV: 2 to 4 mg/kg/day IV infusion once daily over 4 to 6 hours, or 1 to 2 mg/kg IV infusion twice a day over 4 to 6 hours, or 2 to 4 mg/kg/day as a continuous IV infusion over 24 hours. Capsules: 8 to 12 mg/kg/day orally in 2 divided doses. Solution: 8 to 12 mg/kg orally once daily. In some patients, doses can be titrated downward with time to maintenance doses as low as 3 to 5 mg/kg/day. […]
Transplant subjects receiving cyclosporine pursuant to standard pre- and post-transplant procedures will be divided into groups. […] Subjects will be monitored for health and function of the transplanted tissue or organ, as well as the incidence and severity of nephrotoxicity often seen with prolonged cyclosporine administration.

Sprague Dawley rats = assay: Renal ischemia/reperfusion, no-reflow zone in the kidney; format: in vivo, rat
[1] = tested on: subjects at risk for developing hyperalgesia; assay: Prevention of neuropathy or hyperalgesia in at-risk humans; format: in vivo, human; conditions: s.c., once daily
From the text: Subjects at risk for developing hyperalgesia will be recruited as they present in clinic for the treatment of conditions associated with the development of peripheral neuropathy or hyperalgesia. Independent studies will address neuropathy and hyperalgesia resulting from, caused by, or otherwise associated with genetic disorders, metabolic/endocrine complications, inflammatory diseases, vitamin deficiencies, malignant diseases, and toxicity, such as alcohol, organic metal, heavy metal, radiation, and drug toxicity. Subjects will be selected such that they are at risk for developing a single type of neuropathy or hyperalgesia, having no risk factors outside the scope of the study in which the subject is enrolled, and as yet not having symptoms associated with neuropathy or hyperalgesia. Subjects will be screened for their willingness to enroll in the study, and informed consent will be obtained. […]
After a focused interview about the medical history, baseline measurements of touch and sharpness detection thresholds, grooved pegboard tests, and thermal detection thresholds will be determined according to the methods described above, with statistical analysis as described above. […]
Subjects will be evaluated weekly during the trial for sharpness detection thresholds, grooved pegboard tests, and thermal detection thresholds. […]

Structure (SMILES): N=C(N)NCCC[C@H](NC(=O)[C@@H](N)Cc1c[nH]c2ccccc12)C(=O)N[C@@H](Cc1c[nH]c2ccccc12)C(=O)N[C@@H](CCCCN)C(N)=O [SPN10, H-L-Trp-L-Arg-L-Trp-L-Lys-NH2] (H-WRWK-NH2)
- ROS accumulation (DCF) (N2A cells): reduce ROS accumulation
- mitochondrial depolarization (TMRM) (N2A cells): prevent mitochondrial depolarization
- health of transplanted organ or tissue, cyclosporine dosage maintained (transplant patients): healthier transplanted organ or tissue
- anatomic zone of no-reflow in the kidney (Sprague Dawley rats; 30 minutes before ischemia and before reperfusion): prevent or reduce
- one or more of BUN, serum creatinine, and glomerular filtration rate (Sprague Dawley rats; versus untreated control subjects): improve
- development of neuropathy or hyperalgesia [1]: attenuated
